Measurements reported in patent publication US10898459B2, “Method of treating chronic kidney disease” (Panion & BF Biotech Inc., priority 2006, dated 2021).

What was measured:
[1] = 37° C.; cited from earlier work

ferric citrate [PAN031203A]
Intrinsic Dissolution Rates (37° C., solution of pH 8): 3.82 mg/cm^2/min

ferric citrate [PAN031203B]
Intrinsic Dissolution Rates (37° C., solution of pH 8): 4.00 mg/cm^2/min

ferric citrate [PAN031203C]
Intrinsic Dissolution Rates (37° C., solution of pH 8): 2.68 mg/cm^2/min

ferric citrate [PAN031203D]
Intrinsic Dissolution Rates (37° C., solution of pH 8): 2.95 mg/cm^2/min

ferric citrate [PAN031203E]
Intrinsic Dissolution Rates (37° C., solution of pH 8): 3.13 mg/cm^2/min

ferric citrate [STM-134, reference compound]
Intrinsic Dissolution Rates (37° C., solution of pH 8): 1.88 mg/cm^2/min
Mean Intrinsic Dissolution Rates (37° C., solution of pH 8): 1.88 mg/cm^2/min
Mean Dissolution Rates (Table 2, one value for the pair of samples -1 and -2, listed as STM-134-1): 2.47 mg/cm2/min

ferric citrate [crystalline ferric citrate]
rate of dissolution (time) [1]: 10 to 12 h
